# In US9453192B2, “High-acidity vinegar and method for producing the same” (priority 2012, dated 2016):
# Where two headings read alike, the source gives them in different places.
# Legend:
# [1] = system: Acetobacter altoacetigenes MH-24 (FERM BP-491); experiment: Semi-continuous acetic acid fermentation, culture solution with Acetozym DS+2 and additives (Example 1); type: cell-based; settings: for Final acidity: acidity when a portion of the fermentation liquid was pulled out; for Fermentation time: average time of one cycle (2nd to 7th cycles) until acidity exceeded 15%; for Productivity: rate of increase in acidity per hour
# Excerpt: (§1) The present invention relates to a method for producing a high-acidity vinegar having acidity of 10% to 25%, particularly 15% to 25% by brewing, i.e., acetic acid fermentation. In general, the acidity of vinegar means the concentration of acetic acid (w/v %) in the vinegar. The acidity referred to herein means the acetic acid concentration determined by conducting neutralization titration of the sample (vinegar) with phenolphthalein as an indicator and 1N sodium hydroxide aqueous solution in the manner known to persons skilled in the art.
# (§2) A culture solution (2.5 L) containing acetic acid (8 w/v %), ethanol (2 v/v %), Acetozym DS+2 (product of FRINGS; 0.15 w/v %), and a variety of additives at given concentrations was introduced into a 5 L-volume jar fermenter. The total nitrogen content of the culture solution was 0.006 w/v %. Cryopreserved Acetobacter altoacetigenes MH-24 (FERM BP-491) was inoculated into the culture solution to start acetic acid fermentation. Submerged fermentation involving aeration stirring was adopted for the fermentation. Fermentation was conducted under the conditions of a temperature at 30° C., a rotative speed of 600 rpm, and an aeration volume of 0.15 vvm.
# (§3) After the start of fermentation, 95% ethanol was fed to the fermentation liquid until the acidity (acetic acid concentration: w/v %) of the fermentation liquid exceeded 15% so as to maintain the ethanol concentration in the fermentation liquid at 1.5 to 3 v/v %. At the time point at which the acidity exceeded 15% (approximately 15.5%) and the ethanol concentration reached about 0.5 v/v %, the fermentation liquid was pulled out such that approximately half of the total fermentation liquid volume is remained.
# (§4) After the portion of the fermentation liquid was pulled out, the above components were added again without discontinuation of aeration and stirring of the remaining fermentation liquid such that the volume of the fermentation liquid was adjusted to 2.5 L and the composition of the fermentation liquid became equivalent to the composition of the original culture solution. Then, fermentation was continued in the above manner. Thereafter the cycle, in which fermentation was conducted until the acidity exceeded 15% (approximately 15.5%), approximately half of the total volume of the fermentation liquid was pulled out and the above components were added again to restart fermentation with decreased acidity, is repeated to conduct semi-continuous fermentation. Seven times repeats of the cycle from the start of fermentation to re-introduction of the components was regarded as one examination. Six examinations were conducted with each different condition of additives. Table 1 summarizes the average time duration required for one cycle, i.e., from the restart of fermentation to the time point at which the acidity exceeded 15%, (the average time of 2nd to 7th cycles), final acidity (acidity when a portion of the fermentation liquid was pulled out), and productivity (the rate of increase in acidity per hour) with the types and amounts of additives.
# [2] = system: Acetobacter altoacetigenes MH-24 (FERM BP-491)
# Excerpt: as §1, §2, §3
# as §4, with “Table 1 summarizes the average time duration required for one cycle, i.e., from the restart of fermentation to the time point at which the acidity exceeded 15%, (the average time of 2nd to 7th cycles), final acidity (acidity when a portion of the fermentation liquid was pulled out), and productivity (the rate of increase in acidity per hour) with the types and amounts of additives.” left out
# [3] = Glutathione 220 μM, 4 cycle repetitions
Structure (SMILES),Final acidity ([1]; L-cystine 18 μM) [%],Fermentation time ([1]; L-cystine 18 μM) [h],Productivity ([1]; L-cystine 18 μM) [%/h],Final acidity ([1]; L-cystine 45 μM) [%],Fermentation time ([1]; L-cystine 45 μM) [h],Productivity ([1]; L-cystine 45 μM) [%/h],Final acidity ([1]; L-cystine 90 μM) [%],Fermentation time ([1]; L-cystine 90 μM) [h],Productivity ([1]; L-cystine 90 μM) [%/h],"Effect on productivity as compared with Exam 1 (no additive) ([1]; L-cystine alone, 18 μM (Exam 2))","Fermentation time [2, 3] [h]","Final acidity [2, 3] [%]","Productivity ([2]; Glutathione 220 μM, 4 cycle repetitions, rate of increase in acidity per hour) [%/h]","Effect on productivity ([2]; Glutathione used as additive (220 μM), versus no additive)"
N[C@@H](CSSC[C@H](N)C(=O)O)C(=O)O [L-cystine],15.4,48.9,0.151,15.3,41.7,0.175,15.3,37.5,0.195,effect of improving productivity was confirmed,,,,
N[C@@H](CCC(=O)N[C@@H](CS)C(=O)NCC(=O)O)C(=O)O [Glutathione],,,,,,,,,,,51.3,15.4,0.144,productivity was significantly improved
